Data published in patent publication US20050209278A1, “Piperidinyl- and piperazinyl-sulfonylmethyl hydroxamic acids and their use as protease inhibitors” (priority 2002, published 2005).
Read-outs that look alike come from different tables or passages of the source.

Legend:
Assay type in all cases: biochemical
[1] = molecular target: T1, MMP-1 (Homo sapiens, UniProt P03956); assay: MMP-1 inhibition (in vitro Ki)
T1 construct: made in house; host or cells: MMP-1-transfected HT-1080 cells (spent media)
T1 sequence (P03956 100-469): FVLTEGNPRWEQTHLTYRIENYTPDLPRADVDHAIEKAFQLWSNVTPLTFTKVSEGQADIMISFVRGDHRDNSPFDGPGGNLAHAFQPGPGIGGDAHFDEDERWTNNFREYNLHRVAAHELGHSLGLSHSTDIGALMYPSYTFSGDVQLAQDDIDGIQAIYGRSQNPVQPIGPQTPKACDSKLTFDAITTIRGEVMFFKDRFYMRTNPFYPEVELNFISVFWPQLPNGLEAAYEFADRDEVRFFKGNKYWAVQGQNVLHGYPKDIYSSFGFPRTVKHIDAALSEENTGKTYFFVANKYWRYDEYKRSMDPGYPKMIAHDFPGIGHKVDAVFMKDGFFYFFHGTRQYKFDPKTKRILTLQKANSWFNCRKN

[2] = molecular target: T2, MMP-2 (Homo sapiens, UniProt P08253); assay: MMP-2 inhibition (in vitro Ki)
T2 construct: made in house; host or cells: MMP-2-transfected p2AHT2 cells
T2 sequence (P08253 110-660): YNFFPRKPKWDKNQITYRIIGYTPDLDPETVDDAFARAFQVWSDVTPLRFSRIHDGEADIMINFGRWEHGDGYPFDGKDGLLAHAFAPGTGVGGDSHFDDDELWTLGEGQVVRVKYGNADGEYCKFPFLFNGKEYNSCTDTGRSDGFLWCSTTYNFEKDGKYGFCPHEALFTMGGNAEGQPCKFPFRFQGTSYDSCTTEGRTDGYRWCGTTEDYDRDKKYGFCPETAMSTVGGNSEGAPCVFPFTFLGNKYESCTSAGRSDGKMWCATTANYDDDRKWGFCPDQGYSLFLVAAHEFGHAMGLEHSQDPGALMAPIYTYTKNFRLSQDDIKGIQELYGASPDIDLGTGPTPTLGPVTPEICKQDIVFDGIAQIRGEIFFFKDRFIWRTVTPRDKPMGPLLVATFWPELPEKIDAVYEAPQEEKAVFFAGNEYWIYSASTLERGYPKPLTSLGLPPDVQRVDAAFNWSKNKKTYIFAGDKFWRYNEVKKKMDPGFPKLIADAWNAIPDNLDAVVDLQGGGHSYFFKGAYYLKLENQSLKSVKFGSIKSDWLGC

[3] = molecular target: T3, MMP-9 (Homo sapiens, UniProt P14780); assay: MMP-9 inhibition (in vitro Ki)
T3 construct: made in house; host or cells: MMP-9-transfected HT1080 cells (spent media)

[4] = molecular target: T4, MMP-13 (Homo sapiens, UniProt P45452); assay: MMP-13 inhibition (in vitro Ki); details: Table 8; read-out: MMP-13 Ki
T4 construct: made in house; host or cells: baculovirus / insect cells

[5] = molecular target: T5, MMP-14 (Homo sapiens, UniProt P50281); assay: MMP-14 inhibition (in vitro Ki)
T5 construct: The catalytic domain enzyme was expressed in E. coli inclusion bodies, solubilized in urea; made in house

T3 sequence (P14780 107-707 limits assumed): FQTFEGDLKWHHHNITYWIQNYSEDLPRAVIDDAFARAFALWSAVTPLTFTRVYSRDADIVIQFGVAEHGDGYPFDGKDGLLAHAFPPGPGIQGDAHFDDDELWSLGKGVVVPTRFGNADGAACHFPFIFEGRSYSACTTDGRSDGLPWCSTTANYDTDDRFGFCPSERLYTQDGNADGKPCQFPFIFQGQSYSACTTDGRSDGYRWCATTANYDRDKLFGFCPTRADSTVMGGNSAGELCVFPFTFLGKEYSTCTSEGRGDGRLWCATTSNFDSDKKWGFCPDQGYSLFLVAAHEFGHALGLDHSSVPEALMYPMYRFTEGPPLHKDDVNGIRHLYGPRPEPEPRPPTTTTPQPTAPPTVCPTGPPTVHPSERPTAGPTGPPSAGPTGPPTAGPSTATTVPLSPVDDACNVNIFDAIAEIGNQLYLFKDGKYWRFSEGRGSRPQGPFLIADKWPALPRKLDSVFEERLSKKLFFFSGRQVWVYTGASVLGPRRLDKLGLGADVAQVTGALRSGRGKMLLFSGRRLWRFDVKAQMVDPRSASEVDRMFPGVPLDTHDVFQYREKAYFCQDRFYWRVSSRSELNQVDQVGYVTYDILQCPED

| SMILES | Ki ([1]; Table 8, read-out: MMP-1 Ki) [µM] | Ki ([2]; Table 8, read-out: MMP-2 Ki) [nM] | Ki ([3]; Table 8, read-out: MMP-9 Ki) [nM] | Ki [4] [nM] | Ki ([5]; Table 8, read-out: MMP-14 Ki) [µM] | Ki ([1]; Table 9, read-out: MMP-1 Ki (IC-50)) [µM] | Ki ([2]; Table 9, read-out: MMP-2 Ki (IC-50)) [nM] | Ki ([3]; Table 9, read-out: MMP-9 Ki (IC-50)) [nM] | Ki ([5]; Table 9, read-out: MMP-14 Ki (IC-50)) [µM] |
| --- | --- | --- | --- | --- | --- | --- | --- | --- | --- |
| CC(C)(C)CCOC1CCN(S(=O)(=O)C2(C(=O)NO)CCOCC2)CC1 [Example A36E] | > 10 | 112 | 365 | 65.8 | 4.25 |  |  |  |  |
| CC(C)CCCCCOC1CCN(S(=O)(=O)C2(C(=O)NO)CCOCC2)CC1 [Example A36F] | > 10 | 2.47 | 2.26 | 1.11 | 1.9 |  |  |  |  |
| O=C(NO)C1(S(=O)(=O)N2CCC(OCCCc3ccccc3)CC2)CCOCC1 [Example A36G] | > 10 | 31.1 | 16.4 | 30.2 | 2.61 |  |  |  |  |
| CCCCOCCOC1CCN(S(=O)(=O)C2(C(=O)NO)CCOCC2)CC1 [Example A36H] | > 10 | 60.1 | 45.7 | 70.5 | > 10 |  |  |  |  |
| CCCCOCCCC1CCN(S(=O)(=O)C2(C(=O)NO)CCOCC2)CC1 [Example A36I] | > 10 | 9.08 | 2.57 | 7.7 | 6.37 |  |  |  |  |
| O=C(NO)C1(S(=O)(=O)N2CCC(CCCOCCCC(F)(F)F)CC2)CCOCC1 [Example A36J] | > 10 | 7.8 | 10.3 | 4.38 | 6.55 |  |  |  |  |

The next lines start with the values.

| Ki ([1]; Table 8, read-out: MMP-1 Ki) [µM] | Ki ([2]; Table 8, read-out: MMP-2 Ki) [nM] | Ki ([3]; Table 8, read-out: MMP-9 Ki) [nM] | Ki [4] [nM] | Ki ([5]; Table 8, read-out: MMP-14 Ki) [µM] | Ki ([1]; Table 9, read-out: MMP-1 Ki (IC-50)) [µM] | Ki ([2]; Table 9, read-out: MMP-2 Ki (IC-50)) [nM] | Ki ([3]; Table 9, read-out: MMP-9 Ki (IC-50)) [nM] | Ki ([5]; Table 9, read-out: MMP-14 Ki (IC-50)) [µM] | SMILES |
| --- | --- | --- | --- | --- | --- | --- | --- | --- | --- |
| 6.71 | 0.97 | 0.3 | 0.3 | 0.69 |  |  |  |  | O=C(NO)C1(S(=O)(=O)N2CCC(CCCCCOCCC(F)(F)F)CC2)CCOCC1 [Example A37, 4-{4-[5-(3,3,3-Trifluoro-propoxy)-pentyl]-piperidine-1-sulfonyl}-tetrahydro-pyran-4-carboxylic Acid Hydroxyamide] |
| 4.58 | 0.72 | 2.25 | 0.52 | 1.19 |  |  |  |  | CCOCCCCCC1CCN(S(=O)(=O)C2(C(=O)NO)CCOCC2)CC1 [Example A38, 4-[4-(5-ethoxy-pentyl)-piperidine-1-sulfonyl]-tetrahydro-pyran-4-carboxylic Acid Hydroxyamide] |
|  |  |  |  |  | > 10 | 770 | 1620 | > 10 | O=C(NO)C1(S(=O)(=O)N2CCC(N3CCN(c4ccc(F)cc4)CC3)CC2)CCOCC1 [Example A197] |
